Consider 19 compounds from patent US20240270762A1, “PENICILLIN-BINDING PROTEIN INHIBITORS” (priority 2021, published 2024).

Usually EC50 stands for the concentration needed to bring the measured effect to its halfway point. Low values mean greater potency, high ones weaker potency.

One assay has as its system E. coli AG100. Nature of the assay: microbe, parasite or virus in culture. Type of assay: cell-based. Conditions: Escherichia coli, AG100, read-out: MIC E. coli AG100.
The next assay deals with N. gonorrhoeae WHO Z. The assay can be described thus: Liquid broth MIC in Fastidious broth. Conditions: Neisseria gonorrhoeae, read-out: Minimum Inhibitory Concentration (MIC), N. gonorrhoeae WHO Z.
Assay [1] concerns the target T1, PBP3 from Escherichia coli (K-12) (Escherichia coli, UniProt P0AD68).
T1 construct: made in house
Nature of the assay: Bocillin-FL fluorescence polarization competition binding, E. coli PBP3. In outline: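 Purified PBP was preincubated with inhibitor (E. coli PBP3 1.5 μM, 30 min; P. aeruginosa PBP3 0.75 μM, A. baumannii PBP3 0.2 μM and PBP1a 1 μM, 15 min), then Bocillin-FL (0.1 μM; 0.05 μM for PBP1a) added and FP read up to 60 min. EC50 = 50% loss of bound probe.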
On the technique in general: Polarisation of emitted light reports the rotation of a fluorescent probe.

Another assay relates to N. gonorrhoeae WHO X. Nature of the assay: Liquid broth MIC in Fastidious broth. Particulars: Neisseria gonorrhoeae, read-out: Minimum Inhibitory Concentration (MIC), N. gonorrhoeae WHO X.

SMILES strings stand for the structures. ≈ marks a conversion by molar mass, not a printed value.

T1 sequence (P0AD68 1-577): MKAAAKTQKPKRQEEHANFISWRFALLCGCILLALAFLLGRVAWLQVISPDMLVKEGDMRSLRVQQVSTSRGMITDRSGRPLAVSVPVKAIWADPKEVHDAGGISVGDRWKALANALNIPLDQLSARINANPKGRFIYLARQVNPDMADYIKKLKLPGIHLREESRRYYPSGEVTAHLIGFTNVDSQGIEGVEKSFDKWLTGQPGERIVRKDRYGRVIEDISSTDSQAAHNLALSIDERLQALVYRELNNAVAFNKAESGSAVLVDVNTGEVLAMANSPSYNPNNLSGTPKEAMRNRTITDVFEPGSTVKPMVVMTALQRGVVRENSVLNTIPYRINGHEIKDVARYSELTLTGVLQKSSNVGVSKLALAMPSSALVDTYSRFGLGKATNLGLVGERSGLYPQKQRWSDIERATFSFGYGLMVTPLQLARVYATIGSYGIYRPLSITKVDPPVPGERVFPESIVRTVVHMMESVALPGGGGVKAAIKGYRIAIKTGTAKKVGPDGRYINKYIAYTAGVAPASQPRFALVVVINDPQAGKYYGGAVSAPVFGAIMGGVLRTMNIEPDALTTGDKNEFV

With `O=C(O)c1cccc2c1OB(O)[C@@H](NC(=O)[C@@H](NC(=O)N1CCNC1=O)c1ccc(P(=O)(O)O)cc1)C2` [Example 39, (R)-2-hydroxy-3-((S)-2-(2-oxoimidazolidine-1-carboxamido)-2-(4-phosphonophenyl)acetamido)-3,4-dihydro-2H-benzo[e][1,2]oxaborinine-8-carboxylic acid], the MIC in the assay on E. coli AG100 was greater than 128 µg/mL; in the assay on N. gonorrhoeae WHO Z, 1 to 2 µg/mL (≈ 1.88 to 3.76 µM); with N. gonorrhoeae WHO X, 16 to 32 µg/mL (≈ 30.1 to 60.1 µM). In assay [1], this compound showed a 50% effective concentration (EC50) of 50 to 250 µM.

Regarding `O=C(O)c1cccc2c1OB(O)[C@@H](NC(=O)[C@H](NC(=O)N1CCNC1=O)c1ccc(P(=O)(O)O)cc1)C2` [Example 40, (R)-2-hydroxy-3-((R)-2-(2-oxoimidazolidine-1-carboxamido)-2-(4-phosphonophenyl)acetamido)-3,4-dihydro-2H-benzo[e][1,2]oxaborinine-8-carboxylic acid], the figures for the MIC with E. coli AG100, in the assay on N. gonorrhoeae WHO Z and in the assay with N. gonorrhoeae WHO X were 32 to 64 µg/mL (≈ 60.1 to 120 µM), less than 1 µg/mL and 1 to 2 µg/mL (≈ 1.88 to 3.76 µM), respectively. The EC50 in assay [1] is less than 10 µM.

Consider `CN1CCN(C(=O)NC(C(=O)N[C@H]2Cc3cccc(C(=O)O)c3OB2O)c2ccc(P(=O)(O)O)cc2)C1=O` (stereo partly drawn) [Example 41, (3R)-2-hydroxy-3-(2-(3-methyl-2-oxoimidazolidine-1-carboxamido)-2-(4-phosphonophenyl)acetamido)-3,4-dihydro-2H-benzo[e][1,2]oxaborinine-8-carboxylic acid], for which the MIC with E. coli AG100 is 32 to 64 µg/mL (≈ 58.6 to 117 µM); with N. gonorrhoeae WHO Z it was less than 1 µg/mL; in the assay with N. gonorrhoeae WHO X, 1 to 2 µg/mL (≈ 1.83 to 3.66 µM). Also, the 50% effective concentration (EC50) in assay [1] was less than 10 µM.

Take `CCN1CCN(C(=O)NC(C(=O)N[C@H]2Cc3cccc(C(=O)O)c3OB2O)c2ccc(P(=O)(O)O)cc2)C1=O` (stereo partly drawn) [Example 42, (3R)-3-(2-(3-ethyl-2-oxoimidazolidine-1-carboxamido)-2-(4-phosphonophenyl)acetamido)-2-hydroxy-3,4-dihydro-2H-benzo[e][1,2]oxaborinine-8-carboxylic acid]: the MIC with E. coli AG100 was 32 to 64 µg/mL (≈ 57.1 to 114 µM); with N. gonorrhoeae WHO Z, less than 1 µg/mL; with N. gonorrhoeae WHO X it was 1 to 2 µg/mL (≈ 1.78 to 3.57 µM). Moreover, the concentration giving a half-maximal response (EC50) in assay [1] was less than 10 µM.

Take `CS(=O)(=O)N1CCC[C@H]1C(=O)N[C@H](C(=O)N[C@H]1Cc2cccc(C(=O)O)c2OB1O)c1ccc(P(=O)(O)O)cc1` [Example 43, (R)-2-hydroxy-3-((S)-2-((S)-1-(methylsulfonyl)pyrrolidine-2-carboxamido)-2-(4-phosphonophenyl)acetamido)-3,4-dihydro-2H-benzo[e][1,2]oxaborinine-8-carboxylic acid]: the MIC is greater than 128 µg/mL in the assay with E. coli AG100, 4 to 8 µg/mL (≈ 6.72 to 13.4 µM) with N. gonorrhoeae WHO Z and 16 to 32 µg/mL (≈ 26.9 to 53.8 µM) in the assay on N. gonorrhoeae WHO X. In assay [1], this compound had an EC50 of 50 to 250 µM.

Consider `CS(=O)(=O)N1CCC[C@H]1C(=O)N[C@@H](C(=O)N[C@H]1Cc2cccc(C(=O)O)c2OB1O)c1ccc(P(=O)(O)O)cc1` [Example 44, (R)-2-hydroxy-3-((R)-2-((S)-1-(methylsulfonyl)pyrrolidine-2-carboxamido)-2-(4-phosphonophenyl)acetamido)-3,4-dihydro-2H-benzo[e][1,2]oxaborinine-8-carboxylic acid], for which the MIC with E. coli AG100 is greater than 128 µg/mL; with N. gonorrhoeae WHO Z it was 1 to 2 µg/mL (≈ 1.68 to 3.36 µM); with N. gonorrhoeae WHO X, 16 to 32 µg/mL (≈ 26.9 to 53.8 µM). The compound also had an EC50 in assay [1] of 10 to 50 µM.

Turning to `CS(=O)(=O)N1CCN(C(=O)NC(C(=O)N[C@H]2Cc3cccc(C(=O)O)c3OB2O)c2ccc(P(=O)(O)O)c(F)c2O)C1=O` (stereo partly drawn) [Example 48, (3R)-3-(2-(3-fluoro-2-hydroxy-4-phosphonophenyl)-2-(3-(methylsulfonyl)-2-oxoimidazolidine-1-carboxamido)acetamido)-2-hydroxy-3,4-dihydro-2H-benzo[e][1,2]oxaborinine-8-carboxylic acid], the values for the MIC with E. coli AG100, in the assay on N. gonorrhoeae WHO Z and with N. gonorrhoeae WHO X were greater than 128 µg/mL, 1 to 2 µg/mL (≈ 1.55 to 3.1 µM) and 16 to 32 µg/mL (≈ 24.8 to 49.7 µM), respectively. In assay [1], the EC50 was in the range of 10 to 50 µM.

For the compound `O=C(O)c1cccc2c1OB(O)[C@@H](NC(=O)C(NC(=O)[C@H]1CCCN1)c1ccc(P(=O)(O)O)cc1)C2` (stereo partly drawn) [Example 52, (3R)-2-hydroxy-3-(2-(4-phosphonophenyl)-2-((R)-pyrrolidine-2-carboxamido)acetamido)-3,4-dihydro-2H-benzo[e][1,2]oxaborinine-8-carboxylic acid], the MIC in the assay with E. coli AG100 was greater than 128 µg/mL; in the assay with N. gonorrhoeae WHO Z, 16 to 32 µg/mL (≈ 30.9 to 61.9 µM); with N. gonorrhoeae WHO X, 16 to 32 µg/mL (≈ 30.9 to 61.9 µM). Also, the concentration giving a half-maximal response (EC50) in assay [1] was greater than 250 µM.

`O=C1CC[C@H](C(=O)NC(C(=O)N[C@H]2Cc3cccc(C(=O)O)c3OB2O)c2ccc(P(=O)(O)O)cc2)N1` (stereo partly drawn) [Example 53, (3R)-2-hydroxy-3-(2-((R)-5-oxopyrrolidine-2-carboxamido)-2-(4-phosphonophenyl)acetamido)-3,4-dihydro-2H-benzo[e][1,2]oxaborinine-8-carboxylic acid]: the MIC with E. coli AG100 was greater than 128 µg/mL; with N. gonorrhoeae WHO Z, 16 to 32 µg/mL (≈ 30.1 to 60.2 µM); in the assay with N. gonorrhoeae WHO X, 16 to 32 µg/mL (≈ 30.1 to 60.2 µM). For the same compound, the EC50 in assay [1] was in the range of 50 to 250 µM.

Consider `O=C(O)c1cccc2c1OB(O)[C@@H](NC(=O)C(NC(=O)N1CCCNC1=O)c1ccc(P(=O)(O)O)cc1)C2` (stereo partly drawn) [Example 56, (3R)-2-hydroxy-3-(2-(2-oxohexahydropyrimidine-1-carboxamido)-2-(4-phosphonophenyl)acetamido)-3,4-dihydro-2H-benzo[e][1,2]oxaborinine-8-carboxylic acid], for which the MIC with E. coli AG100 is greater than 128 µg/mL; in the assay with N. gonorrhoeae WHO Z it was 4 to 8 µg/mL (≈ 7.32 to 14.6 µM); in the assay on N. gonorrhoeae WHO X, 16 to 32 µg/mL (≈ 29.3 to 58.6 µM). The EC50 in assay [1] was 10 to 50 µM.

As to `O=C(O)c1cccc2c1OB(O)[C@@H](NC(=O)C(NC(=O)N1CCCC1=O)c1ccc(P(=O)(O)O)cc1)C2` (stereo partly drawn) [Example 57, (3R)-2-hydroxy-3-(2-(2-oxopyrrolidine-1-carboxamido)-2-(4-phosphonophenyl)acetamido)-3,4-dihydro-2H-benzo[e][1,2]oxaborinine-8-carboxylic acid], the figures for the MIC in the assay with E. coli AG100, in the assay on N. gonorrhoeae WHO Z and in the assay on N. gonorrhoeae WHO X were greater than 128 µg/mL, 1 to 2 µg/mL (≈ 1.88 to 3.76 µM) and 4 to 8 µg/mL (≈ 7.53 to 15.1 µM), respectively. Also, the half-maximal effective concentration (EC50) in assay [1] is 10 to 50 µM.

On to `NS(=O)(=O)NC(C(=O)N[C@H]1Cc2cccc(C(=O)O)c2OB1O)c1ccc(P(=O)(O)O)cc1` (stereo partly drawn) [Example 58, (3R)-2-hydroxy-3-(2-(4-phosphonophenyl)-2-(sulfamoylamino)acetamido)-3,4-dihydro-2H-benzo[e][1,2]oxaborinine-8-carboxylic acid], for which the MIC is greater than 128 µg/mL in the assay with E. coli AG100, 16 to 32 µg/mL (≈ 32.1 to 64.1 µM) in the assay on N. gonorrhoeae WHO Z and 16 to 32 µg/mL (≈ 32.1 to 64.1 µM) in the assay with N. gonorrhoeae WHO X. The compound also registered an EC50 in assay [1] greater than 250 µM.

Consider `CS(=O)(=O)NC(C(=O)N[C@H]1Cc2cccc(C(=O)O)c2OB1O)c1ccc(P(=O)(O)O)cc1` (stereo partly drawn) [Example 59, (3R)-2-hydroxy-3-(2-(methylsulfonamido)-2-(4-phosphonophenyl)acetamido)-3,4-dihydro-2H-benzo[e][1,2]oxaborinine-8-carboxylic acid], for which the results for the MIC with E. coli AG100, in the assay with N. gonorrhoeae WHO Z and in the assay on N. gonorrhoeae WHO X were greater than 128 µg/mL, 16 to 32 µg/mL (≈ 32.1 to 64.2 µM) and 16 to 32 µg/mL (≈ 32.1 to 64.2 µM), respectively. The compound also came in with an EC50 in assay [1] greater than 250 µM.

On to `CC(C)S(=O)(=O)NC(C(=O)N[C@H]1Cc2cccc(C(=O)O)c2OB1O)c1ccc(P(=O)(O)O)cc1` (stereo partly drawn) [Example 60, (3R)-2-hydroxy-3-(2-((1-methylethyl)sulfonamido)-2-(4-phosphonophenyl)acetamido)-3,4-dihydro-2H-benzo[e][1,2]oxaborinine-8-carboxylic acid], for which the MIC with E. coli AG100 is greater than 128 µg/mL; in the assay on N. gonorrhoeae WHO Z, 16 to 32 µg/mL (≈ 30.4 to 60.8 µM); in the assay with N. gonorrhoeae WHO X, 16 to 32 µg/mL (≈ 30.4 to 60.8 µM). In addition, in assay [1], the concentration for a half-maximal effect (EC50) was greater than 250 µM.

For the compound `O=C(O)c1cccc2c1OB(O)[C@@H](NC(=O)C(NS(=O)(=O)C1CC1)c1ccc(P(=O)(O)O)cc1)C2` (stereo partly drawn) [Example 61, (3R)-3-(2-(cyclopropanesulfonamido)-2-(4-phosphonophenyl)acetamido)-2-hydroxy-3,4-dihydro-2H-benzo[e][1,2]oxaborinine-8-carboxylic acid], the values for the MIC in the assay on E. coli AG100, in the assay with N. gonorrhoeae WHO Z and in the assay with N. gonorrhoeae WHO X were greater than 128 µg/mL, 16 to 32 µg/mL (≈ 30.5 to 61 µM) and 16 to 32 µg/mL (≈ 30.5 to 61 µM), respectively. Further, the EC50 in assay [1] is 50 to 250 µM.

As to `O=C1CC[C@@H](C(=O)NC(C(=O)N[C@H]2Cc3cccc(C(=O)O)c3OB2O)c2ccc(P(=O)(O)O)cc2)N1` (stereo partly drawn) [Example 64, (3R)-2-hydroxy-3-(2-((S)-5-oxopyrrolidine-2-carboxamido)-2-(4-phosphonophenyl)acetamido)-3,4-dihydro-2H-benzo[e][1,2]oxaborinine-8-carboxylic acid], the MIC in the assay with E. coli AG100 is greater than 128 µg/mL; in the assay on N. gonorrhoeae WHO Z, 4 to 8 µg/mL (≈ 7.53 to 15.1 µM); in the assay on N. gonorrhoeae WHO X, 16 to 32 µg/mL (≈ 30.1 to 60.2 µM). Also, the concentration giving a half-maximal response (EC50) in assay [1] is 50 to 250 µM.

`CC(=O)N1CCC[C@H]1C(=O)NC(C(=O)N[C@H]1Cc2cccc(C(=O)O)c2OB1O)c1ccc(P(=O)(O)O)cc1` (stereo partly drawn) [Example 65, (3R)-3-(2-((S)-1-acetylpyrrolidine-2-carboxamido)-2-(4-phosphonophenyl)acetamido)-2-hydroxy-3,4-dihydro-2H-benzo[e][1,2]oxaborinine-8-carboxylic acid]: the MIC in the assay on E. coli AG100 is greater than 128 µg/mL; with N. gonorrhoeae WHO Z, 16 to 32 µg/mL (≈ 28.6 to 57.2 µM); in the assay with N. gonorrhoeae WHO X it was 16 to 32 µg/mL (≈ 28.6 to 57.2 µM). In addition, in assay [1], the EC50 was greater than 250 µM.

Turning to `CN1CCC[C@H]1C(=O)NC(C(=O)N[C@H]1Cc2cccc(C(=O)O)c2OB1O)c1ccc(P(=O)(O)O)cc1` (stereo partly shown) [Example 66], the values for the MIC in the assay on E. coli AG100, with N. gonorrhoeae WHO Z and with N. gonorrhoeae WHO X were greater than 128 µg/mL, 16 to 32 µg/mL (≈ 30.1 to 60.2 µM) and 16 to 32 µg/mL (≈ 30.1 to 60.2 µM), respectively. The same compound came in with an EC50 in assay [1] of 50 to 250 µM.

On to `O=C(O)c1cccc2c1OB(O)[C@@H](NC(=O)C(NC(=O)C(F)(F)F)c1ccc(P(=O)(O)O)cc1)C2` (stereo partly drawn) [Example 172, (3R)-2-hydroxy-3-(2-(4-phosphonophenyl)-2-(2,2,2-trifluoroacetamido)acetamido)-3,4-dihydro-2H-benzo[e][1,2]oxaborinine-8-carboxylic acid], for which the values for the MIC with E. coli AG100, with N. gonorrhoeae WHO Z and in the assay with N. gonorrhoeae WHO X were greater than 128 µg/mL, 16 to 32 µg/mL (≈ 31 to 62 µM) and 16 to 32 µg/mL (≈ 31 to 62 µM), respectively. In assay [1], this compound returned an EC50 greater than 250 µM.
